Patent US7109193B2, “Tricyclic diazepines tocolytic oxytocin receptor antagonists” (Wyeth, priority 2001, dated 2006)

Test system: not given
Assay: not given
Conditions: not given

Row | Compound | melting point [°C]
1 | Cc1cc(C(=O)N2Cc3ccc(C(=O)N(CCCN(C)C)CCCN(C)C)n3Cc3ccccc32)ccc1-c1ccccc1C(F)(F)F [Example 3, 10-[(2-Methyl-2′-trifluoromethyl-[1,1′-biphenyl]-4-yl)-carbonyl]-10,11-dihydro-5H-pyrrolo[2,1-c][1,4]benzodiazepine-3-carboxylic acid bis-(3-dimethylamino-propyl)-amide] | 55 to 64

Biological target: T1, human oxytocin receptor (Homo sapiens, UniProt P30559)
T1 construct: host or cells: CHO cells (pcDNA3.1 vector)
T1 sequence (P30559 1-389): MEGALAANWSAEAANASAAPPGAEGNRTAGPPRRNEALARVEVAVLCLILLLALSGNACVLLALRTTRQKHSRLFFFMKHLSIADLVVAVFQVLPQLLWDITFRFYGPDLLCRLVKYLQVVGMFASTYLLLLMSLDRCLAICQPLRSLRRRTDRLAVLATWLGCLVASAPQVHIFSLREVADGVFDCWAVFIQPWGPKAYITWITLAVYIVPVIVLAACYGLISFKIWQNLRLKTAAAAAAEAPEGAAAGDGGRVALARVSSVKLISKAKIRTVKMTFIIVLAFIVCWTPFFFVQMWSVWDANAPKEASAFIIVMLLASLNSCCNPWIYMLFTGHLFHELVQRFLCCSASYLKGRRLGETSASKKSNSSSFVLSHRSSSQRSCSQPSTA
Assay: Oxytocin binding in Chinese Hamster Ovary cell membranes expressing human oxytocin receptors
Conditions: 100 nM, CHO cell membranes, [3H]oxytocin, values without parentheses

Row | Compound | OT % inhibition @ 100% nM [%]
2 | Cc1ccccc1-c1ccc(C(=O)N2Cc3ccc(C(=O)N4CCC[C@H]4CN4CCCC4)n3Cc3ccccc32)cc1C [Example 260, {10-[(2,2′-Dimethyl[1,1′-biphenyl]-4-yl)carbonyl]-10,11-dihydro-5H-pyrrolo[2,1-c][1,4]benzodiazepin-3-yl}[(2S)-2-(1-pyrrolidinylmethyl)pyrrolidinyl]methanone] | 102
3 | COc1cc(C(=O)N2Cc3ccc(C(=O)N4CCC[C@H]4CN4CCCC4)n3Cc3ccccc32)ccc1-n1c(C)ccc1C [Example 321, {10-[4-(2,5-Dimethyl-1H-pyrrol-1-yl)-3-methoxybenzoyl]-10,11-dihydro-5H-pyrrolo[2,1-c][1,4]benzodiazepin-3-yl}[(2S)-2-(1-pyrrolidinylmethyl)pyrrolidinyl]methanone] | 62
4 | COc1ccccc1-c1ccc(C(=O)N2Cc3ccc(C(=O)N4CCC[C@H]4CN4CCCC4)n3Cc3ccccc32)cc1C [Example 259, {10-[(2′-Methoxy-2-methyl[1,1′-biphenyl]-4-yl)carbonyl]-10,11-dihydro-5H-pyrrolo[2,1-c][1,4]benzodiazepin-3-yl}[(2S)-2-(1-pyrrolidinylmethyl)pyrrolidinyl]methanone] | 97
5 | COC(=O)c1ccc2c(c1)N(C(=O)c1ccc(-c3ccccc3C(F)(F)F)c(C)c1)Cc1cccn1C2 [Example 26, Methyl 10-{[2-methyl-2′-trifluoromethyl-[1,1′-biphenyl]-4-yl]carbonyl}-10,11-dihydro-5H-pyrrolo[2,1-c][1.4]benzodiazepine-8-carboxylate] | 17
6 | COc1cccc(-c2ccc(C(=O)N3Cc4ccc(C(=O)N5CCC[C@H]5CN5CCCC5)n4Cc4ccccc43)cc2OC)c1 [Example 270, {10-[(2,3′-Dimethoxy[1,1′-biphenyl]-4-yl)carbonyl]-10,11-dihydro-5H-pyrrolo[2,1-c][1,4]benzodiazepin-3-yl}[(2S)-2-(1-pyrrolidinylmethyl)pyrrolidinyl]methanone] | 95
7 | COc1ccccc1-c1ccc(C(=O)N2Cc3ccc(C(=O)N4CC[C@@H](N(C)C)C4)n3Cc3ccccc32)cc1OC [Example 282, {10-[(2,2′-Dimethoxy[1,1′-biphenyl]-4-yl)carbonyl]-10,11-dihydro-5H-pyrrolo[2,1-c][1,4]benzodiazepin-3-yl][(3R)-3-(dimethylamino)pyrrolidinyl]methanone] | 84
8 | CN(C)[C@@H]1CCN(C(=O)c2ccc3n2Cc2ccccc2N(C(=O)c2ccc(-c4cccc5ccccc45)cc2Cl)C3)C1 [Example 277, {10-[2-Chloro-4-(1-naphthyl)benzoyl]-10,11-dihydro-5H-pyrrolo[2,1-c][1,4]benzodiazepin-3-yl}[(3R)-3-(dimethylamino)pyrrolidinyl]methanone] | 41
9 | Cc1ccccc1-c1ccc(C(=O)N2Cc3ccc(C(=O)N4CC[C@@H](N(C)C)C4)n3Cc3ccccc32)cc1C [Example 274, [(3R)-3-(Dimethylamino)pyrrolidinyl]{10-[(2,2′-dimethyl[1,1′-biphenyl]-4-yl)carbonyl]-10,11-dihydro-5H-pyrrolo[2,1-c][1,4]benzodiazepin-3-yl}methanone] | 103
10 | COc1ccccc1-c1ccc(C(=O)N2Cc3ccc(C(=O)N4CCC[C@H]4CN4CCCC4)n3Cc3ccccc32)cc1OC [Example 269, {10-[(2,2′-Dimethoxy[1,1′-biphenyl]-4-yl)carbonyl]-10,11-dihydro-5H-pyrrolo[2,1-c][1,4]benzodiazepin-3-yl}[(2S)-2-(1-pyrrolidinylmethyl)pyrrolidinyl]methanone] | 88
11 | O=C(c1ccc(-c2cccc3ccccc23)cc1Cl)N1Cc2ccc(C(=O)N3CCC[C@H]3CN3CCCC3)n2Cc2ccccc21 [Example 261, {10-[2-Chloro-4-(1-naphthyl)benzoyl]-10,11-dihydro-5H-pyrrolo[2,1-c][1,4]benzodiazepin-3-yl}[(2S)-2-(1-pyrrolidinylmethyl)pyrrolidinyl]methanone] | 52
12 | COc1cc(-c2ccccc2C)c(Cl)cc1C(=O)N1Cc2ccc(C(=O)N3CCC[C@H]3CN3CCCC3)n2Cc2ccccc21 [Example 267, {10-[(6-Chloro-3-methoxy-2′-methyl[1,1′-biphenyl]-4-yl)carbonyl]-10,11-dihydro-5H-pyrrolo[2,1-c][1,4]benzodiazepin-3-yl}[(2S)-2-(1-pyrrolidinylmethyl)pyrrolidinyl]methanone] | 93

Same assay, conditions: 100 nM, CHO cell membranes, [3H]oxytocin, values without parentheses, read-out: OT % inhibition @ 100% nM

Row | Compound | inhibition at 0.1 µM [%]
13 | Cc1cc(C(=O)N2Cc3ccc(C(=O)N(CCCN(C)C)CCCN(C)C)n3Cc3ccccc32)ccc1-c1ccccc1C(F)(F)F [Example 3, 10-[(2-Methyl-2′-trifluoromethyl-[1,1′-biphenyl]-4-yl)-carbonyl]-10,11-dihydro-5H-pyrrolo[2,1-c][1,4]benzodiazepine-3-carboxylic acid bis-(3-dimethylamino-propyl)-amide] | 37
14 | O=C(c1ccc2n1Cc1ccccc1N(C(=O)c1ccc(-c3cccc4ccccc34)cc1Cl)C2)N1CCC(N2CCCC2)CC1 [Example 147, {10-[2-Chloro-4-(1-naphthyl)benzoyl]-10,11-dihydro-5H-pyrrolo[2,1-c][1,4]benzodiazepin-3-yl}[4-(1-pyrrolidinyl)-1-piperidinyl]methanone] | 33
15 | COc1ccccc1-c1ccc(C(=O)N2Cc3ccc(C(=O)N4CCC(N5CCCC5)CC4)n3Cc3ccccc32)cc1 [Example 140, {10-[(2′-Methoxy[1,1′-biphenyl]-4-yl)carbonyl]-10,11-dihydro-5H-pyrrolo[2,1-c][1,4]benzodiazepin-3-yl}[4-(1-pyrrolidinyl)-1-piperidinyl]methanone] | 87
16 | COc1cc(C(=O)N2Cc3ccc(C(=O)N4CCC(N5CCCC5)CC4)n3Cc3ccccc32)ccc1-c1ccccc1C [Example 142, {10-[(2-Methoxy-2′-methyl[1,1′-biphenyl]-4-yl)carbonyl]-10,11-dihydro-5H-pyrrolo[2,1-c][1,4]benzodiazepin-3-yl}[4-(1-pyrrolidinyl)-1-piperidinyl]methanone] | 83
17 | COc1ccccc1-c1ccc(C(=O)N2Cc3ccc(C(=O)NCCN4CCCCC4)n3Cc3ccccc32)cc1C [Example 149, 10-[(2′-Methoxy-2-methyl[1,1′-biphenyl]-4-yl)carbonyl]-N-[2-(1-piperidinyl)ethyl]-10,11-dihydro-5H-pyrrolo[2,1-c][1,4]benzodiazepine-3-carboxamide] | 75
18 | COc1cccc(-c2ccc(C(=O)N3Cc4ccc(C(=O)N5CCC(N6CCCCC6)CC5)n4Cc4ccccc43)cc2OC)c1 [Example 120, {10-[(2,3′-Dimethoxy-[1,1′-biphenyl]-4-yl)carbonyl]-10,11-dihydro-5H-pyrrolo[2,1-c][1,4]benzodiazepin-3-yl}[4-(1-piperidinyl)-1-piperidinyl]methanone] | 69
19 | COc1cccc(-c2cc(OC)c(C(=O)N3Cc4ccc(C(=O)N5CCC(N6CCCC6)CC5)n4Cc4ccccc43)cc2Cl)c1 [Example 143, {10-[(6-Chloro-3,3′-dimethoxy[1,1′-biphenyl]-4-yl)carbonyl]-10,11-dihydro-5H-pyrrolo[2,1-c][1,4]benzodiazepin-3-yl}[4-(1-pyrrolidinyl)-1-piperidinyl]methanone] | 69
20 | CN(C)CCCN(C)C(=O)c1ccc2n1Cc1ccccc1N(C(=O)c1ccc(-c3cccc4ccccc34)cc1Cl)C2 [Example 109, 10-[2-Chloro-4-(1-naphthyl)benzoyl]-N-[3-(dimethylamino)propyl]-N-methyl-10,11-dihydro-5H-pyrrolo[2,1-c][1,4]benzodiazepine-3-carboxamide] | 49
21 | Cc1ccccc1-c1ccc(C(=O)N2Cc3ccc(C(=O)NCCCn4ccnc4)n3Cc3ccccc32)cc1 [Example 127, N-[3-(1H-Imidazol-1-yl)propyl]-10-[(2′-methyl[1,1′-biphenyl]-4-yl)carbonyl]-10,11-dihydro-5H-pyrrolo[2,1-c][1,4]benzodiazepine-3-carboxamide] | 29
